Experimental data taken from patent US20240000767A1, “COMBINATION OF AN ALPHA2-ADRENOCEPTOR SUBTYPE C (ALPHA-2C) ANTAGONIST WITH A TASK1/3 CHANNEL BLOCKER FOR THE TREATMENT OF SLEEP APNEA” (Bayer Aktiengesellschaft, priority 2020, published 2024).

Target: human ADRA2C receptor (Homo sapiens (Human), UniProt P18825)
Assay: In vitro activity assay to determine the inhibition of recombinant ADRA2C (CHO-K1 cells, aequorin bioluminescence)
Format: cell-based
Settings: inhibition of noradrenaline-induced bioluminescence signal; some mean values from multiple determinations; read-out: ARα2C IC50
Description: B-2. In Vitro Activity Assay to Determine the Inhibition of Recombinant ADRA2C
The human ADRA2C receptor belongs to the G protein(guanine-dependent protein)-coupled receptors, the main function of which is the transduction of signals into the interior of the cell.
The investigations of the inhibition of the recombinant human ADRA2C receptors were carried out with stabily transfected CHO-K1 cells coexpressing the Gaq protein and the calcium-sensitive photoprotein aequorin. In this recombinant system, binding of the agonists noradrenaline to the ADRA2C receptor leads, after activation of a signal cascade, to calcium release from intracellular stores, which is detected by the intracellular calcium sensor aequorin as a bioluminescent signal. The method is described in detail in the reference below. [Wunder F., Kalthof B., Muller T., Hueser J. Functional Cell-Based Assays in Microliter Volumes for Ultra-High Throughput Screening. Combinatorial Chemistry & High Throughput Screening, Volume 11, Number 7, 2008, pp. 495-504(10). doi.org/10.2174/138620708785204054]
The activity of the test substances was determined via their ability to inhibit the agonist-induced increase of the bioluminescence signal. The concentration which can block half of this signal increase is referred to as IC50. The IC50 value is calculated using the 4 parameter logistic function (Hill function):
Top=upper threshold, Bottom=lower threshold, Slope=slope, IC50=turning point

human ADRA2C receptor, sequence (P18825 whole entry): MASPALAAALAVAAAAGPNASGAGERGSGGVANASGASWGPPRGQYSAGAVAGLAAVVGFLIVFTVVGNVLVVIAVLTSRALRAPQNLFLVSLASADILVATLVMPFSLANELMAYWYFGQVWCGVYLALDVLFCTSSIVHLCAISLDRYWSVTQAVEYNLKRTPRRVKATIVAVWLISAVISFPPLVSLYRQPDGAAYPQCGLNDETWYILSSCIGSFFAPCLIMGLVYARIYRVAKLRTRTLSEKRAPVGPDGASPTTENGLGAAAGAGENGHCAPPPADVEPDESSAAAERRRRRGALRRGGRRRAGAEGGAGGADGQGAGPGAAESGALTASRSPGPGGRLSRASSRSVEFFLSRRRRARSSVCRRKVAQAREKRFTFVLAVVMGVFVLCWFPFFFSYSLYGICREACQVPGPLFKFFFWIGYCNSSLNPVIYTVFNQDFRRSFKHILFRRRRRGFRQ

Structure (SMILES)	IC50
Cc1ccc(CNC(=O)c2cnc(N3CCC(N4CCC[C@@H](C)C4)CC3)s2)cc1 [Example 35, N-(4-methylbenzyl)-2-[(3R)-3-methyl[1,4′-bipiperidin]-1′-yl]-1,3-thiazole-5-carboxamide]	1000 nM
C[C@@H]1CCCN(C2CCN(c3ncc(C(=O)NCc4ccc(Cl)cn4)s3)CC2)C1 [Example 29, N-[(5-chloropyridin-2-yl)methyl]-2-[(3R)-3-methyl[1,4′-bipiperidin]-1′-yl]-1,3-thiazole-5-carboxamide]	96 nM
C[C@@H]1CCCN(C2CCN(c3ncc(C(=O)NCc4ccc(C(F)(F)F)cc4)s3)CC2)C1 [Example 22, 2-[(3R)-3-Methyl[1,4′-bipiperidin]-1′-yl]-N-[4-(trifluoromethyl)benzyl]-1,3-thiazole-5-carboxamide]	640 nM
Cc1ccnc(CNC(=O)c2cnc(N3CCC(N4CCC[C@@H](C)C4)CC3)s2)c1 [Example 25, 2-[(3R)-3-methyl[1,4′-bipiperidin]-1′-yl]-N-[(4-methylpyridin-2-yl)methyl]-1,3-thiazole-5-carboxamide]	2400 nM
C[C@@H]1CCCN(C2CCN(c3nc(C(=O)NCc4ncc(F)cc4F)co3)CC2)C1 [Example 13, N-[(3,5-difluoropyridin-2-yl)methyl]-2-[(3R)-3-methyl[1,4′-bipiperidin]-1′-yl]-1,3-oxazole-4-carboxamide]	209 nM
CC(CNC(=O)c1cnc(N2CCC(N3CCC[C@@H](C)C3)CC2)s1)c1ccccc1 (stereo partly drawn) [Example 83]	98.1 nM
C[C@@H]1CCCN(C2CCN(c3ncc(C(=O)NCc4ccc(F)s4)s3)CC2)C1 [Example 57, N-[(5-Fluoro-2-thienyl)methyl]-2-[(3R)-3-methyl[1,4′-bipiperidin]-1′-yl]-1,3-thiazole-5-carboxamide]	830 nM
O=C(NCc1ncc(F)cc1F)c1cnc(N2CCC(N3CCCC(OCC4CC(F)(F)C4)C3)CC2)s1 (racemic) [Example 7, 2-{3-[(3,3-difluorocyclobutyl)methoxy][1,4′-bipiperidin]-1′-yl}-N-[(3,5-difluoropyridin-2-yl)methyl]-1,3-thiazole-5-carboxamide (racemate)]	49.6 nM
CC1CCCCN(C2CCN(c3ncc(C(=O)NCc4ncc(F)cc4F)s3)CC2)C1 (racemic) [Example 54, rac-N-[(3,5-Difluoropyridin-2-yl)methyl]-2-[4-(3-methylazepan-1-yl)piperidin-1-yl]-1,3-thiazole-5-carboxamide]	230 nM

Continued, values first:

IC50	Structure (SMILES)
97 nM	C[C@@H]1CCCN(C2CCN(c3ncc(C(=O)N(C)Cc4cccnc4)s3)CC2)C1 [Example 90]
284 nM	C[C@@H]1CCCN(C2CCN(c3ncc(C(=O)N(C)Cc4ccncc4)s3)CC2)C1 [Example 91]
150 nM	C[C@@H]1CCCN(C2CCN(c3ncc(C(=O)NCc4cccc(Cl)c4)s3)CC2)C1 [Example 94]
11 nM	O=C(NCc1ncc(F)cc1F)c1cnc(N2CCC(N3CCCC(COCC4CC4)C3)CC2)s1 (single isomer, unassigned; ent-2) [Example 116, ent-2-{3-[(Cyclopropylmethoxy)methyl][1,4′-bipiperidin]-1′-yl}-N-[(3,5-difluoropyridin-2-yl)methyl]-1,3-thiazole-5-carboxamide]
25.5 nM	C[C@@H]1CCCN(C2CCN(c3ncc(C(=O)NCc4ccccc4F)s3)CC2)C1 [Example 87]
37 nM	O=C(NCc1ncc(F)cc1F)c1cnc(N2CCC(N3CCCC(COCC(F)(F)F)C3)CC2)s1 (single isomer, unassigned) [Example 107, ent-N-[(3,5-Difluoropyridin-2-yl)methyl]-2-{3-[(2,2,2-trifluoroethoxy)methyl][1,4′-bipiperidin]-1′-yl}-1,3-thiazole-5-carboxamide]
230 nM	C[C@@H]1CCCN(C2CCN(c3ncc(C(=O)Nc4ccc(F)c(C#N)c4)s3)CC2)C1 [Example 89]
1.72 nM	Cc1ccc2c(c1)CCN(C1CCN(c3ncc(C(=O)NCc4ncc(F)cc4F)s3)CC1)C2 [Example 146]
1.8 nM	O=C(NCc1ncc(F)cc1F)c1cnc(N2CCC(N3CCc4cccc(F)c4C3)CC2)s1 [Example 144]
